The text below walks through data of paper PMC9987361, “Interaction of hemorphins with ACE homologs” (Scientific Reports, 2023).

Like-named read-outs stand apart in the source and are kept apart here. No end group written: not given here.

The target of one data set is T1, ACE1 (Homo sapiens, UniProt P12821).
T1 construct: purchased Dojindo Laboratories
Put plainly: In vitro ACE1 inhibition assay (colorimetric ACE1 Kit-WST, absorbance 450 nm). It counts as biochemical. The protocol:
ACE1 inhibition was measured using the absorbance-based colorimetric ACE1 Kit-WST (Dojindo Laboratories, Mashiki-machi, Japan) according to the kit instructions. […] The 18 peptides (Table 2) were initially screened in a single run at concentrations of 0, 10, 50, 100, 200, and 500 µM. […] In a 96-well microplate, 20 µL of each hemorphin concentration was pipetted into each well. In addition, 20 µL and 40 µL of deionized water were pipetted into blank 1 and blank 2 wells, respectively, and 20 µL of substrate buffer and 20 µL of enzyme working solution were pipetted into each sample well and blank 1 well.
The microplate was incubated at 37 °C for 1 h. After incubation, 200 µL of indicator working solution was pipetted to each well and then incubated for 5 min at room temperature.
The absorbance was then measured at 450 nm using a Glomax Discover Microplate Reader (Promega, Madison, WI, USA). ACE1 inhibition was measured using the equation given below: Inhibitionrate%=Blank1-Sample/Blank1-Blank2×100 where Blank1 (without a sample but with enzyme working solution) and Blank2 (without a sample and no enzyme working solution) are 20 µL and 40 µL deionized water, respectively.
The half-maximal inhibitory concentration (IC50) was determined using GraphPad Prism version 9 (GraphPad, San Diego, CA) from a nonlinear regression inhibition plot against the peptide concentration.

Data set [1] can be described thus: Dissolution of purchased peptides during sample preparation. Particulars: sample preparation for ACE1 screening. The data set is classed as physicochemical. The protocol: All the purchased peptides were screened in an initial run at 0, 10, 50, 100, 200, and 500 µM.
The subject of the next data set is ACE2. More on the design: method as in printed at the sentence. Particulars: clinically used ACE1 inhibitors; background statement, ref not given; cited from earlier work.
Setting [2] is: IC50 (μM) ± SD against ACE1, mean ± SD of three independent experiments (triplicate runs).
Setting [3] is: IC50 values of initial single-run peptide screening, single run at 0, 10, 50, 100, 200 and 500 µM, unit not given for IC50.

T1 sequence (P12821 30-1306): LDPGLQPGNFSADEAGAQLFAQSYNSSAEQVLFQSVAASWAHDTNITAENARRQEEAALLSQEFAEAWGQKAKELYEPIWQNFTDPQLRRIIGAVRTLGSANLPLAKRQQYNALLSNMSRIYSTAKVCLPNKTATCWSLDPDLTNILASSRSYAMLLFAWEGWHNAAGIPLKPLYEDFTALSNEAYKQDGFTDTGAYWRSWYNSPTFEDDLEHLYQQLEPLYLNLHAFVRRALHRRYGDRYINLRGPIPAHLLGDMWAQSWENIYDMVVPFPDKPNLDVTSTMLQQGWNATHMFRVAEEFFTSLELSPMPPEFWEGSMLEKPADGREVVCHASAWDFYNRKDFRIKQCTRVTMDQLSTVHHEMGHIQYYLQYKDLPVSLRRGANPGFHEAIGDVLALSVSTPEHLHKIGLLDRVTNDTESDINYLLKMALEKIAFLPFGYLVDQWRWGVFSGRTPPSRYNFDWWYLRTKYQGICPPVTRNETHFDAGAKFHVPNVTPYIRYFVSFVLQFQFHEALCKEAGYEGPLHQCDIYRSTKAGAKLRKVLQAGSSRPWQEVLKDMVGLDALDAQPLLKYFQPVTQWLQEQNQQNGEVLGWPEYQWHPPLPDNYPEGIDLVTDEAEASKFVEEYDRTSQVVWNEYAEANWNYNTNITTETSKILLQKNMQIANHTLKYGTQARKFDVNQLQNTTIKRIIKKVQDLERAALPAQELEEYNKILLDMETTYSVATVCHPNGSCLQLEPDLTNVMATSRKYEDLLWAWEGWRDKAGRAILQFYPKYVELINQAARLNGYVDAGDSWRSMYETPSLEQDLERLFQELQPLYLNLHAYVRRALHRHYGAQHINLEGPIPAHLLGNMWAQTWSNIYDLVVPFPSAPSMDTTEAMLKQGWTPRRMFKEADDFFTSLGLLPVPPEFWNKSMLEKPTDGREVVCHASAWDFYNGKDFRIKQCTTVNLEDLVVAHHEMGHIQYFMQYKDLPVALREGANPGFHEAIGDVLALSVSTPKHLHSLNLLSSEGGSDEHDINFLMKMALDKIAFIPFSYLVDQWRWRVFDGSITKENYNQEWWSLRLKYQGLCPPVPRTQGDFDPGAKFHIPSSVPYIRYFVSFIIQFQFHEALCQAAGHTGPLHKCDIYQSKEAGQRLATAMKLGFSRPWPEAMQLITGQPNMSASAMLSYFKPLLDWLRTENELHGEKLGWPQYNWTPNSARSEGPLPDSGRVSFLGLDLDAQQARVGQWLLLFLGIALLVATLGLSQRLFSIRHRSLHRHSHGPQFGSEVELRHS

The compound YPWTR [Camel Hem5, Tyr-Pro-Trp-Thr-Arg] returned an IC50 at ACE1 of 78.8 µM.

As to “Tyr-Pro-Trp-Thr-Gln (YPWTQ; printed: Tyr-Pro-Trp-Thr-Gln) [Hem5]”, the “Dissolution during sample preparation” value in data set [1] was “did not dissolve”.

On to `C[C@H](CS)C(=O)N1CCC[C@H]1C(=O)O` [captopril], for which, in the data set with ACE2, the “Activity against ACE2” value was “inactivity”.

Consider LVVYPWTRR [Camel LVVHem6], for which the IC50 on ACE1 (setting [2]) was determined as 5.12 ± 0.7 µM; against ACE1 (setting [3]), 25.9 µM.

Regarding VVYPWTQR [VVHem6], the values for the IC50 on ACE1 (setting [2]) and against ACE1 (setting [3]) were 12.7 µM and 30.3 µM, respectively.

The compound VVYPWTRRF [Camel VVHem7] had an IC50 against ACE1 (setting [3]) of 51.4 µM.

Turning to YPWTQR [Hem6, Tyr-Pro-Trp-Thr-Gln-Arg], the IC50 against ACE1 (setting [3]) is 80.2 µM.

In the case of VVYPWTRR [Camel VVHem6], the IC50 against ACE1 (setting [3]) was 44.1 µM. Compared with the last compound, the IC50 is about 1.8-fold lower.

Take Tyr-Pro-Trp-Thr [Hem4]: at ACE1 (single run at 0, 10, 50, 100, 200 and 500 µM, unit not given for IC50), the “IC50 values of initial single-run peptide screening” value is reported as “No IC50”.

For `CC(C)C[C@H](N)C(=O)N[C@H](C(=O)N[C@H](C(=O)N[C@@H](Cc1ccc(O)cc1)C(=O)N1CCC[C@H]1C(=O)N[C@@H](Cc1c[nH]c2ccccc12)C(=O)N[C@H](C(=O)N[C@@H](CCC(N)=O)C(=O)N[C@@H](CCCNC(=N)N)C(=O)N[C@@H](Cc1ccccc1)C(=O)O)[C@@H](C)O)C(C)C)C(C)C` [LVVHem7], the IC50 on ACE1 (setting [2]) came to 13.1 ± 2.87 µM; against ACE1 (setting [3]) it was 29.3 µM.

For “YPWTQRF [Hem7, Tyr-Pro-Trp-Thr-Gln-Arg-Phe]”, at ACE1 (setting [3]), the IC50 is 95.1 µM.

As for LVVYPWTQ [LVVHem5], the IC50 against ACE1 (setting [2]) was found to be 20.1 ± 1.33 µM; at ACE1 (setting [3]) it was 36.7 µM.

For the compound LVVYPWTQR [LVVHem6], the results for the 50% inhibitory concentration (IC50) at ACE1 (setting [2]) and against ACE1 (setting [3]) were 6.45 µM and 14.9 µM, respectively.

LVVYPWTR [Camel LVVHem5]: the IC50 against ACE1 (setting [2]) was 6.88 ± 1.89 µM; on ACE1 (setting [3]), 21.2 µM.

For the compound “YPWTRRF [Camel Hem7, Tyr-Pro-Trp-Thr-Arg-Arg-Phe]”, the values for the IC50 at ACE1 (setting [2]) and at ACE1 (setting [3]) were 23.6 ± 3.7 µM and 44.1 µM, respectively.

Regarding `NCCCC[C@H](N[C@@H](CCc1ccccc1)C(=O)O)C(=O)N1CCC[C@H]1C(=O)O` [lisinopril], in the data set on ACE2, the “Activity against ACE2” value was “inactivity”.

For the compound YPWTRR [Camel Hem6], in data set [1], the “Dissolution during sample preparation” value is reported as “did not dissolve”.

Consider `CC(C)C[C@H](N)C(=O)N[C@H](C(=O)N[C@H](C(=O)N[C@@H](Cc1ccc(O)cc1)C(=O)N1CCC[C@H]1C(=O)N[C@@H](Cc1c[nH]c2ccccc12)C(=O)N[C@H](C(=O)N[C@@H](CCCNC(=N)N)C(=O)N[C@@H](CCCNC(=N)N)C(=O)N[C@@H](Cc1ccccc1)C(=O)O)[C@@H](C)O)C(C)C)C(C)C` [Camel LVVHem7], for which the figures for the IC50 on ACE1 (setting [2]) and against ACE1 (setting [3]) were 11.1 ± 2.18 µM and 25.8 µM, respectively.

The IC50 is the concentration at which inhibition is half-maximal. The low end stands for inhibition by little substance, the high end for a need for much substance.
